Reference: patent publication US20090311185A1, “Peptide having antianxiety activity and screening method therefor” (priority 2005, published 2009)
Entries after “also recorded” stand apart in the source; their conditions may differ. Bridges are numbered along the chain shown (N, C = ends). Roman numbers before positions name the chains, in order. Where no end group is shown, it is not given here.

Legend:
[1] = system: rats; assay: Elevated plus-maze test after intracerebroventricular administration (rats); type: in vivo, rat; settings: Wistar male rats, 5 min test, vs vehicle
Protocol: The influence of relaxin-3 on anxiety activity was determined using an elevated plus-maze.
Wistar male rats (9 weeks of age; Japan Charles River) were received cannulation into the lateral cerebroventricle under anesthesia. The rats were then fed, and administration experiments of relaxin-3 were carried out a week or later.
The human relaxin-3 (Peptide Institute, Inc.) was dissolved in physiological saline and was diluted to a final concentration of 10 pmol/rat or 50 pmol/rat.
The tested rats with guide cannula implantation were administered with 5 μL each of the human relaxin-3 administration solution (10 pmol/rat, N=8; or 50 pmol/rat, N=7), or vehicle group (physiological saline, N=7) at a rate of 2.5 μL per minute using an infusion pump.
Antianxiety activities were measured using an elevated plus-maze. The maze was raised 50 cm above the floor and included four arms arranged in the form of a plus sign (+) spread from the central platform (10 cm×10 cm) positioned at the center. Two opposite arms (50 cm long and 10 cm wide) are open arms, and the other two opposite arms (50 cm long, 10 cm wide with walls 40 cm high) were closed arms. Lighting was arranged so as to set the luminance at the floor in the open arms was 60 to 80 lux. A rat 10 minutes after the intracerebroventricular administration was placed in the center of the plus-maze so as to face one of the open arms, and the test was carried out for 5 minutes. The test was conducted only within a period from 11:00 to 16:00. The behaviors of rats were recorded by a video, and the number of entries into the open and closed arms and the time spent in the open and closed arms were measured on each mouse by analyzing the video after the completion of the test. FIGS. 7 and 8 show the total number of entries into open and closed arms and the percentage of time spent in open arms within 5 minutes, respectively. To compare among the human relaxin-3 administration groups and the vehicle group, a significant difference test by the t-test was conducted.

[2] = system: mice; assay: Elevated plus-maze test after intracerebroventricular administration (mice); type: in vivo; settings: BALB/c male mice, 1 nmol/mouse intracerebroventricular, 5 min test, vs vehicle
Protocol: The influence of relaxin-3 on anxiety activity was determined using an elevated plus-maze. An elevated plus-maze test is a behavioral pharmacological test which is widely used in the measurement of anxiety level of experimental animals such as rats or mice, or for the evaluation of drug efficacies of antianxiety drugs, using exploring behaviors in open arms, such as the time spent in open arms, as an index.
BALB/c male mice (7 weeks of age; Japan Charles River) were received cannulation into the lateral cerebroventricle under anesthesia. The mice were then fed, and administration experiments of relaxin-3 were carried out a week or later.
The human relaxin-3 (Peptide Institute, Inc.) was dissolved in physiological saline and was diluted to a final concentration of 1 nmol/mouse.
The tested mice with guide cannula implantation were intracerebroventricularly administered with each 2 μL of the human relaxin-3 administration solution (N=8) or a vehicle solution (physiological saline) (N=9) at a rate of 1 μL per minute using an infusion pump.
Antianxiety activities were measured using an elevated plus-maze. […] The behaviors of mice were recorded by a video, and the number of entries into the open and closed arms and the time spent in the open and closed arms were measured on each mouse by analyzing the video after the completion of the test. […]

[3] = system: rats; assay: Defensive burying test after intracerebroventricular administration; type: in vivo, rat; settings: F344 male rats, 15 min test, vs vehicle
Protocol: The influence of relaxin-3 on an anxiety activity was determined using a defensive burying test (Treit et al., Pharmacology Biochemistry and Behavior, 15, p. 619-626, 1981).
F344 male rats (7 weeks of age; Japan Charles River) were fed foods for experimental animals (MF; Oriental Yeast) to be adapted. The rats (150 to 200 g) received cannulation into the lateral cerebroventricle under anesthesia. Administration experiments of relaxin-3 were carried out a week or later.
The tested rats were placed and left in a testing chamber, which floor was covered with a bedding material to a height of 5 cm, for 30 minutes or more once a day from 3 days before the defensive burying test, so as to allow the tested rats to habituate to the testing environment. The rats were habituated to the environment without the stimulating electrode until the test. […]
On test day, the tested rats were placed in a test chamber (with bedding material to a height of 5 cm) with a stimulating electrode, so as to start an experiment. […] All behaviors of the tested rats were recorded using a videocamera, and the burying behavior time (burying time (sec.)) within 15 minutes from the first electrical shock was measured using the recorded tape. […]

[4] = biological target: T1, SALPR (Homo sapiens, UniProt Q9NSD7); assay: Suppression of forskolin-increased transcription activity (CRE-PLAP reporter) in SALPR-SE302 cells; type: cell-based; settings: forskolin 1 μmol/L, 1 day incubation
T1 construct: the area encoding SALPR is known to be from position 1 to position 1407 (1410 base pairs, 469 amino acid residues); expressed in transfected cells; host or cells: SE302 cells (HEK293 clone carrying the CRE-PLAP reporter), transduced with retrovirus vector pBabeCL(SALPR)IH and selected with hygromycin
T1 sequence (Q9NSD7 1-469): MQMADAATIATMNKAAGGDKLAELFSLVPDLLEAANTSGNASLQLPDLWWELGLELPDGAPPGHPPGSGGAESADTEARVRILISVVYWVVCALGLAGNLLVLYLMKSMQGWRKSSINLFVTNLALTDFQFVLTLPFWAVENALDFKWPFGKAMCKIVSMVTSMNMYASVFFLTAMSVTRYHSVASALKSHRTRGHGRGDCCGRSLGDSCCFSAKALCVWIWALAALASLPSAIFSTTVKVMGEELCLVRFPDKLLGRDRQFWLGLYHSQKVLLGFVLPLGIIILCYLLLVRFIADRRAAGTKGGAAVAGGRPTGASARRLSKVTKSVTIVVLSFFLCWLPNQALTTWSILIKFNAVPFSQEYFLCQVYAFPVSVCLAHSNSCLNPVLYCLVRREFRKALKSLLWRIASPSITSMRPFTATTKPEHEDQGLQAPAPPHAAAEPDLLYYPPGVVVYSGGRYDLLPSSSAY
Protocol: SE302 cells (3×10^3) constructed in Example 5 above were cultured in a 96-well plate (Asahi Techno Glass) using 100 μl of DMEM (Sigma) supplemented with […] fetal bovine serum (FBS) and PS (hereinafter called “culture medium”). On the following day, the retrovirus vector prepared in Example 4 was appropriately diluted and a 100-μl portion of the dilution and polybrene (also called as hexadimethrine bromide, Sigma) prepared in the culture medium (at a final concentration of 8 μg/ml) were added to the SE302 cells. On the following day, the culture medium was replaced by 200 μl of a culture medium supplemented with 500 μg/ml hygromycin (Invitrogen) and then incubation was continued. The SE302 cells for SALPR gene transfer grown under these conditions (hereinafter called “SALPR-SE302 cells”) were appropriately subcultured for experimental use.
SALPR-SE302 cells constructed in Example 6 above were suspended in a medium for measuring transcription activity (DMEM supplemented with 10% FBS (inactivated at 65° C. for 30 minutes)) and then inoculated in a 96-well plate (Beckton Dickinson) at 1×10^4 cells/well. […]

[5] = system: THP-1 cells; settings: THP-1 cells of the immune system; WO 01/81562, Bathgate et al. 2002; cited from earlier work
[6] = 50 pmol/rat intracerebroventricular

Substance | total number of entries into open and closed arms ([1]; 10 pmol/rat intracerebroventricular) | time spent in open arms ([1]; 10 pmol/rat intracerebroventricular, P<0.05) | time spent in open arms [1, 6] | total number of entries into open and closed arms [1, 6] | total number of entries into open and closed arms [2] | time spent in open arms ([2]; P<0.05) | burying behavior time ([3]; 0.05 nmol/rat intracerebroventricular) | burying behavior time ([3]; 1 nmol/rat intracerebroventricular, Dunnett P<0.05) | transcription activity increased by addition of forskolin (alkaline phosphatase reporter) [4] | intracellular cyclic AMP (cAMP) [5]
human relaxin-3: Synthetic human relaxin-3: B-chain SEQ ID NO: 5 and A-chain SEQ ID NO: 6 bonded through disulfide bonds (beta RAAPYGVRLCGREFIRAVIFTCGGSRW; alpha DVLAGLSSSCCKWGCSKSEISSLC; disulfide I:10-II:11, I:22-II:24, II:10-II:15; not fully specified; ends not checked; listed as Homo sapiens) | no difference | statistically significantly high | increase | no difference | no difference | significant increase | decreased | significant decrease | – | –
insulin [reference compound] | – | – | – | – | – | – | – | – | not affected | –
relaxin-3: Relaxin-3 (Phoenix Pharmaceuticals) used in the SALPR reporter assay; mature two-chain polypeptide also known as INSL7 | – | – | – | – | – | – | – | – | suppresses; also recorded: specific dose-dependent suppression | increase
